Reference: paper PMC4160187 (2014)

How the values were obtained:
Experiment in all cases: UV-vis Soret titration (A404)
[1] = tested on: r(C4G2)4 (RNA, other) GGCCCCGGCCCCGGCCCCGGCCCC; settings: 20 mM K+; 40 mM HEPES pH 8.0, 1% DMF, 0.05% Triton X-100, 20°C; heme 0.5 µM; up to 20 µM RNA
[2] = tested on: CatG4 (DNA, G4) TGGGTAGGGCGGGTTGGGAAA; settings: 20 mM K+; 40 mM HEPES pH 8.0, 1% DMF, 0.05% Triton X-100, 20°C; heme 0.5 µM
[3] = tested on: r(G4C2)4 (RNA, G4) GGGGCCGGGGCCGGGGCCGGGGC; settings: 20 mM K+; 40 mM HEPES pH 8.0, 1% DMF, 0.05% Triton X-100, 20°C; heme 0.5 µM; text also ~3 µM
[4] = tested on: d(G4C2)4 (DNA, G4) GGGGCCGGGGCCGGGGCCGGGGC; settings: 20 mM K+; 40 mM HEPES pH 8.0, 1% DMF, 0.05% Triton X-100, 20°C; heme 0.5 µM; weaker than r(G4C2)4

binding [1]: no
Kd [2]: < 0.5 µM
KD [3]: 3.1 µM
binding [4]: yes
SMILES: C=CC1=C(C)C2=Cc3c(C=C)c(C)c4[n]3[Fe]([Cl])[n]3c(c(C)c(CCC(=O)O)c3=CC3=NC(=C4)C(C)=C3CCC(=O)O)=CC1=N2
